The record followed here is patent US9670191B2, “Pyridyl-and pyrimidinyl-substituted pyrrole-, thiophene- and furane-derivatives as kinase inhibitors” (priority 2006, dated 2017).

pIC50: −log10 of the molar value. Structures can show the parent of a compound that is named as a salt.

For one assay, the target named is Cdc7/Dbf4 (Homo sapiens (Human), UniProt O00311). Briefly: Inhibition assay of Cdc7/Dbf4 activity (Dowex resin capture, 33P-ATP, MCM2 substrate).
Chain of Cdc7/Dbf4 (O00311 whole entry, looked up, species assumed): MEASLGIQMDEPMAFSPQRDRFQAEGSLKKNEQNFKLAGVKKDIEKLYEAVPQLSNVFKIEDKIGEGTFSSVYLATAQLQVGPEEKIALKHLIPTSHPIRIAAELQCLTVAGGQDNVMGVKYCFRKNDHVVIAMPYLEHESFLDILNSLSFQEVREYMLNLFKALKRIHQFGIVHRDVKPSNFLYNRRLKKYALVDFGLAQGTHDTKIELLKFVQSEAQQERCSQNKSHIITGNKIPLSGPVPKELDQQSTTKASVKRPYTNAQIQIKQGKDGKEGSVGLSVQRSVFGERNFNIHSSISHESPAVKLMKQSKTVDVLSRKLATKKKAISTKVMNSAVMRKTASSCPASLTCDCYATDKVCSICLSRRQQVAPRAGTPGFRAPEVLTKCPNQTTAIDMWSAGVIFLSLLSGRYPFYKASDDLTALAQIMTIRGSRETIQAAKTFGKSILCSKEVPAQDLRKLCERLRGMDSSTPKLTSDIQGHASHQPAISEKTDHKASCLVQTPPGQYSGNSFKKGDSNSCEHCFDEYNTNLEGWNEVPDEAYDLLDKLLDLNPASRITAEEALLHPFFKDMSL
Chain of Cdc7/Dbf4 (Q9UBU7 whole entry partner, looked up, species assumed): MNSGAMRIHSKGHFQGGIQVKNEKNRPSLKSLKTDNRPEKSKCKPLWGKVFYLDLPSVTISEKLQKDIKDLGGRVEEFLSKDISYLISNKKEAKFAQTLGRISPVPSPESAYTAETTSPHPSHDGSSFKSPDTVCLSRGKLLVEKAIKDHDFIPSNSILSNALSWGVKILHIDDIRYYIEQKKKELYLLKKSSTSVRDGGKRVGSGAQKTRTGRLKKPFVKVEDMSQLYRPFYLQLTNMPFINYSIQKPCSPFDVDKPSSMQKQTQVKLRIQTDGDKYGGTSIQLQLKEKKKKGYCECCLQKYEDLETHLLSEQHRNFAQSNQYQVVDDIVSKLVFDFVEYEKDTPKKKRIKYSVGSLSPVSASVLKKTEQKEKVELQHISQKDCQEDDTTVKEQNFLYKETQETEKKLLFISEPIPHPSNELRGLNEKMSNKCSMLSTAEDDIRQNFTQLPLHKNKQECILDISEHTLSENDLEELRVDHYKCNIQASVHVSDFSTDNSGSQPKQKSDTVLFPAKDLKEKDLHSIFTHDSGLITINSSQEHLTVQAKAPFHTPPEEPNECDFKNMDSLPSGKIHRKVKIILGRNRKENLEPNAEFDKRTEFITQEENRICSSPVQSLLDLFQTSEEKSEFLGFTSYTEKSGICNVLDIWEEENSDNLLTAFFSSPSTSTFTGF
Details: not given
It is filed as biochemical. How it is done:
Inhibition Assay of Cdc7 Activity
The inhibiting activity of putative Cdc7 inhibitors and the potency of selected compounds is determined through a method of assay based on the use of Dowex resin capture technology.
The assay consists of the transfer of radioactivity labeled phosphate moiety by the kinase to an acceptor substrate. The resulting 33P-labeled product is separated from unreacted tracer, transferred into a scintillation cocktail and light emitted is measured in a scintillation counter.
The inhibition assay of Cdc7/Dbf4 activity is performed according to the following protocol.
The MCM2 substrate is trans-phosphorylated by the Cdc7/Dbf4 complex in the presence of ATP traced with γ^33-ATP. The reaction is stopped by addition of Dowex resin in the presence of formic acid. Dowex resin particles capture unreacted γ^33-ATP and drag it to the bottom of the well while ^33P phosphorylated MCM2 substrate remains in solution. The supernatant is collected, transferred into Optiplate plates and the extent of substrate phosphorylation is evaluated by β counting.
The inhibition assay of Cdc7/Dbf4 activity was performed in 96 wells plate according to the following protocol.
The solvent for test compounds contained 3% DMSO (final concentration 1%) • 10 μl substrate MCM2 (6 μM final concentration), a mixture of cold ATP (2 μM final concentration) and radioactive ATP (1/5000 molar ratio with cold ATP). • 10 μl enzyme (Cdc7/Dbf4, 2 nM final concentration) that started the reaction. The buffer of the reaction consisted in 50 mM HEPES pH 7.9 containing 15 mM MgCl2, 2 mM DTT, 3 uM NaVO3, 2 mM glycerophosphate and 0.2 mg/ml BSA. • After incubation for 60 minutes at room temperature, the reaction was stopped by adding to each well 150 μl of Dowex resin in the presence of 150 mM formic acid. After another 60 min incubation, 50 μL of suspension were withdrawn and transferred into 96-well OPTIPLATEs containing 150 μl of MicroScint 40 (Packard); after 5-10 minutes shaking the plates were read for 1 min in a Packard TOP-Count radioactivity reader.
Experimental data were analyzed by the computer program Assay Explorer using the four parameter logistic equation: y=bottom+(top−bottom)/(1+10^((log IC50−x)*slope)) where x is the logarithm of the inhibitor concentration, y is the response; y starts at bottom and goes to top with a sigmoid shape.
Compound `NC(=O)c1cc(-c2ccncc2)[nH]c1-c1cccc(Br)c1` [Compound A5, 2-(3-Bromo-phenyl-5-pyridin-4-yl-1H-pyrrole-3-carboxylic acid amide hydrochloride] showed a pIC50 of 7.00 to 9.00.

Take `Nc1nccc(-c2cc(C(=O)NCc3ccccc3)c(-c3ccccc3)[nH]2)n1` [Compound M3, 5-(2-Amino-pyrimidin-4-yl)-2-phenyl-1H-pyrrole-3-carboxylic acid benzylamide]: the pIC50 is 7.00 to 9.00.

`NC(=O)c1cc(-c2ccnc(N)n2)[nH]c1-c1ccsc1` [Compound G1, 5-(2-amino-pyrimidin-4-yl)-2-thiophen-3-yl-1H-pyrrole-3-carboxylic acid amide] gave a pIC50 of 7.00 to 9.00.

Compound `NC(=O)c1cc(-c2ccnc(N)n2)[nH]c1-c1ccccc1` [Compound F1, 5-(2-Amino-pyrimidin-4-yl)-2-phenyl-1H-pyrrole-3-carboxylic acid amide] had a pIC50 of 7.00 to 9.00.

Compound `Cc1cccc(-c2[nH]c(-c3ccncc3)cc2C(N)=O)c1` [Compound A8, 5-Pyridin-4-yl-2-m-tolyl-1H-pyrrole-3-carboxylic acid amide] had a pIC50 of 7.00 to 9.00.

In turn, `NC(=O)c1cc(-c2ccncc2)[nH]c1-c1ccccc1` [Compound A1, 2-Phenyl-5-pyridin-4-yl-1H-pyrrole-3-carboxylic acid amide] showed a pIC50 of 7.00 to 9.00.

Take `CCn1c(-c2ccnc(N)n2)cc(C(N)=O)c1-c1ccccc1` [Compound L1, 5-(2-Amino-pyrimidin-4-yl)-1-ethyl-2-phenyl-1H-pyrrole-3-carboxylic acid amide]: the pIC50 is 7.00 to 9.00.

For `NC(=O)c1cc(-c2ccncc2)[nH]c1-c1cccc(F)c1` [Compound A3, 2-(3-Fluoro-phenyl)-5-pyridin-4-yl-1H-pyrrole-3-carboxylic acid amide], the pIC50 is 7.00 to 9.00.

Regarding `CC(C)NC(=O)c1cc(-c2ccnc(N)n2)[nH]c1-c1ccccc1` [Compound M2, 5-(2-Amino-pyrimidin-4-yl)-2-phenyl-1H-pyrrole-3-carboxylic acid isopropylamide], the pIC50 was 7.00 to 9.00.

The compound `COc1cccc(-c2[nH]c(-c3ccncc3)cc2C(N)=O)c1` [Compound A11, 2-(3-Methoxy-phenyl)-5-pyridin-4-yl-1H-pyrrole-3-carboxylic acid amide] had a pIC50 of 7.00 to 9.00.

`COc1ccccc1-c1[nH]c(-c2ccncc2)cc1C(N)=O` [Compound A10, 2-(2-Methoxy-phenyl)-5-pyridin-4-yl-1H-pyrrole-3-carboxylic acid amide hydrochloride]: the pIC50 is 7.00 to 9.00.

Take `NC(=O)c1cc(-c2ccncc2F)[nH]c1-c1ccccc1` [Compound E1, 5-(3-Fluoro-pyridin-4-yl)-2-phenyl-1H-pyrrole-3-carboxylic acid amide]: the pIC50 is 7.00 to 9.00.

As for `NC(=O)c1cc(-c2ccncc2)[nH]c1-c1ccc(Br)cc1` [Compound A6, 2-(4-Bromo-phenyl)-5-pyridin-4-yl-1H-pyrrole-3-carboxylic acid amide hydrochloride], the pIC50 was 7.00 to 9.00.

Consider `NC(=O)c1cc(-c2ccncc2)[nH]c1-c1ccc(F)cc1` [Compound A4, 2-(4-Fluoro-phenyl-5-pyridin-4-yl-1H-pyrrole-3-carboxylic acid amide hydrochloride], for which the pIC50 is 7.00 to 9.00.

Compound `Cc1ccc(-c2[nH]c(-c3ccncc3)cc2C(N)=O)cc1` [Compound A9, 5-pyridin-4-yl-2-p-tolyl-1H-pyrrole-3-carboxylic acid amide] gave a pIC50 of 7.00 to 9.00.

`COc1ccc(-c2[nH]c(-c3ccncc3)cc2C(N)=O)cc1` [Compound A12, 2-(4-Methoxy-phenyl)-5-pyridin-4-yl-1H-pyrrole-3-carboxylic acid amide hydrochloride] had a pIC50 of 7.00 to 9.00.

`NC(=O)c1cc(-c2ccnc(Nc3ccccc3)n2)[nH]c1-c1ccccc1` [Compound H1, 2-Phenyl-5-(2-phenylamino-pyrimidin-4-yl)-1H-pyrrole-3-carboxylic acid amide]: the pIC50 is 7.00 to 9.00.

Turning to `NC(=O)c1cc(-c2ccncc2)[nH]c1-c1ccccc1F` [Compound A2, 2-(2-Fluoro-phenyl)-5-pyridin-4-yl-1H-pyrrole-3-carboxylic acid amide hydrochloride], the pIC50 is 7.00 to 9.00.

Still in this assay, the particulars now being: MCM2 substrate 6 μM, ATP 2 μM, enzyme 2 nM, 60 minutes at room temperature; read-out: IC50 values on Cdc7/Dbf4.
With `Cc1cccc(-c2[nH]c(-c3ccncc3)cc2C(N)=O)c1C` [Compound A20, 2-(2,3-Dimethyl-phenyl)-5-pyridin-4-yl-1H-pyrrole-3-carboxylic acid amide], the pIC50 is 7.00 to 9.00.

With `NC(=O)c1cc(-c2ccncc2)[nH]c1-c1ccoc1` [Compound C2, 2-Furan-3-yl-5-pyridin-4-yl-1H-pyrrole-3-carboxylic acid amide], the pIC50 is 7.00 to 9.00.

For the compound `NC(=O)c1cc(-c2ccncc2)[nH]c1-c1ccsc1` [Compound C1, 5-Pyridin-4-yl-2-thiophen-3-yl-1H-pyrrole-3-carboxylic acid amide], the pIC50 was 7.00 to 9.00.

With `Cc1ccccc1-c1[nH]c(-c2ccncc2)cc1C(N)=O` [Compound A7, 5-Pyridin-4-yl-2-o-tolyl-1H-pyrrole-3-carboxylic acid amide], the pIC50 is 7.00 to 9.00.

On to `Nc1nccc(-c2cc(C(=O)NCC3CCCCC3)c(-c3ccccc3)[nH]2)n1` [Compound M4, 5-(2-Amino-pyrimidin-4-yl)-2-phenyl-1H-pyrrole-3-carboxylic acid cyclohexylmethyl-amide], for which the pIC50 is 7.00 to 9.00.
